Values joined by “and” are separate entries in the source; they are usually repeats but may differ in a detail not shown here. Equal entries are not always repeated.
Experiment: xn = mol fraction of the nth substance listed

CN(C)C=O + O
Conditions	viscosity
303.15 K, 101 kPa, x2 = 0.9	1.519 mPa·s and 1.516 mPa·s
303.15 K, 101 kPa, x2 = 0.94	1.24 mPa·s and 1.24 mPa·s
303.15 K, 101 kPa, x2 = 0.96	1.093 mPa·s and 1.091 mPa·s
303.15 K, 101 kPa, x2 = 0.98	0.9451 mPa·s and 0.9453 mPa·s
305.15 K, 101 kPa, x1 = 0.0254	1.107 mPa·s
305.15 K, 101 kPa, x1 = 0.0555	1.335 mPa·s
305.15 K, 101 kPa, x1 = 0.0915	1.61 mPa·s
305.15 K, 101 kPa, x1 = 0.1355	1.795 mPa·s
305.15 K, 101 kPa, x1 = 0.1904	2.021 mPa·s
305.15 K, 101 kPa, x1 = 0.2608	2.238 mPa·s
305.15 K, 101 kPa, x1 = 0.2921	2.27 mPa·s
305.15 K, 101 kPa, x1 = 0.304	2.308 mPa·s
305.15 K, 101 kPa, x1 = 0.3199	2.282 mPa·s
305.15 K, 101 kPa, x1 = 0.3544	2.262 mPa·s
305.15 K, 101 kPa, x1 = 0.4137	2.102 mPa·s
305.15 K, 101 kPa, x1 = 0.4848	1.934 mPa·s
305.15 K, 101 kPa, x1 = 0.5714	1.619 mPa·s
305.15 K, 101 kPa, x1 = 0.6792	1.393 mPa·s
305.15 K, 101 kPa, x1 = 0.8171	1.106 mPa·s
308.15 K, 101 kPa, x1 = 0.0254	0.985 mPa·s
308.15 K, 101 kPa, x1 = 0.027	0.9526 mPa·s
308.15 K, 101 kPa, x1 = 0.0555	1.164 mPa·s
308.15 K, 101 kPa, x1 = 0.058	1.163 mPa·s
308.15 K, 101 kPa, x1 = 0.0915	1.428 mPa·s
308.15 K, 101 kPa, x1 = 0.1355	1.583 mPa·s
308.15 K, 101 kPa, x1 = 0.14	1.539 mPa·s
308.15 K, 101 kPa, x1 = 0.1904	1.823 mPa·s
308.15 K, 101 kPa, x1 = 0.2608	1.989 mPa·s
308.15 K, 101 kPa, x1 = 0.2921	1.999 mPa·s
308.15 K, 101 kPa, x1 = 0.304	2.044 mPa·s
308.15 K, 101 kPa, x1 = 0.3199	1.976 mPa·s
308.15 K, 101 kPa, x1 = 0.3544	1.985 mPa·s
308.15 K, 101 kPa, x1 = 0.4137	1.872 mPa·s
308.15 K, 101 kPa, x1 = 0.4848	1.685 mPa·s
308.15 K, 101 kPa, x1 = 0.5714	1.424 mPa·s
308.15 K, 101 kPa, x1 = 0.6792	1.245 mPa·s
308.15 K, 101 kPa, x1 = 0.8171	1.029 mPa·s
308.15 K, 101 kPa, x2 = 0.1	0.7874 mPa·s and 0.7848 mPa·s
308.15 K, 101 kPa, x2 = 0.2	0.8915 mPa·s and 0.8893 mPa·s
308.15 K, 101 kPa, x2 = 0.3	1.036 mPa·s and 1.033 mPa·s
308.15 K, 101 kPa, x2 = 0.4	1.226 mPa·s and 1.224 mPa·s
308.15 K, 101 kPa, x2 = 0.5	1.468 mPa·s and 1.467 mPa·s
308.15 K, 101 kPa, x2 = 0.6	1.707 mPa·s and 1.702 mPa·s
308.15 K, 101 kPa, x2 = 0.7	1.856 mPa·s and 1.856 mPa·s
308.15 K, 101 kPa, x2 = 0.8	1.759 mPa·s and 1.757 mPa·s
308.15 K, 101 kPa, x2 = 0.9	1.335 mPa·s and 1.335 mPa·s
308.15 K, 101 kPa, x2 = 0.92	1.221 mPa·s and 1.22 mPa·s
308.15 K, 101 kPa, x2 = 0.94	1.1 mPa·s and 1.1 mPa·s
308.15 K, 101 kPa, x2 = 0.96	0.9743 mPa·s and 0.9712 mPa·s
308.15 K, 101 kPa, x2 = 0.98	0.8498 mPa·s and 0.8476 mPa·s
313.15 K, 101 kPa, x1 = 0.0254	0.856 mPa·s
313.15 K, 101 kPa, x1 = 0.027	0.8698 mPa·s
313.15 K, 101 kPa, x1 = 0.0555	1.011 mPa·s
313.15 K, 101 kPa, x1 = 0.058	1.067 mPa·s
313.15 K, 101 kPa, x1 = 0.0915	1.284 mPa·s
313.15 K, 101 kPa, x1 = 0.1355	1.433 mPa·s
313.15 K, 101 kPa, x1 = 0.14	1.392 mPa·s
313.15 K, 101.33 kPa, x1 = 0.0217	0.7737 mPa·s
313.15 K, 101.33 kPa, x1 = 0.0466	0.9108 mPa·s
313.15 K, 101.33 kPa, x1 = 0.0989	1.188 mPa·s
313.15 K, 101.33 kPa, x1 = 0.1478	1.404 mPa·s
313.15 K, 101.33 kPa, x1 = 0.2481	1.713 mPa·s
313.15 K, 101.33 kPa, x1 = 0.2859	1.729 mPa·s
313.15 K, 101.33 kPa, x1 = 0.3728	1.586 mPa·s
313.15 K, 101.33 kPa, x1 = 0.4919	1.351 mPa·s
313.15 K, 101.33 kPa, x1 = 0.5936	1.177 mPa·s
313.15 K, 101.33 kPa, x1 = 0.6889	1.005 mPa·s
313.15 K, 101.33 kPa, x1 = 0.7991	0.8768 mPa·s
313.15 K, 101.33 kPa, x1 = 0.8795	0.8096 mPa·s
318.15 K, 101 kPa, x1 = 0.027	0.796 mPa·s
318.15 K, 101 kPa, x1 = 0.058	0.9746 mPa·s
318.15 K, 101 kPa, x1 = 0.14	1.24 mPa·s
323.15 K, 101 kPa, x1 = 0.027	0.7318 mPa·s
323.15 K, 101 kPa, x1 = 0.058	0.8939 mPa·s
323.15 K, 101 kPa, x1 = 0.14	1.096 mPa·s

— the CheMixHub viscosity set
